Measured values from article PMC10258243, “Identification and characterization of novel marine oxasqualenoid yucatecone against Naegleria fowleri” (International Journal for Parasitology: Drugs and Drug …, 2023).
Like-named read-outs stand apart in the source and are kept apart here.

What was measured:
N. fowleri ATCC® 30215™ = experiment: alamarBlue colorimetric activity assay, trophozoites; assay type: cell-based, Naegleria fowleri; details: for IC50: Naegleria fowleri, read-out: N. fowleri ATCC® 30215™ IC50; for N. fowleri ATCC® 30215™ SI (CC50/IC50): selectivity index
Procedure: (§1) The activity evaluation of the molecules was carried out in two different N. fowleri strains (ATCC® 30808™ and ATCC® 30215™) from the American Type Culture Collection (LG Promochem, Barcelona, Spain). The cytotoxicity of the compounds was evaluated using a murine macrophages cell line (ATCC® TIB-67). Cells were grown as previously described ([Rizo-Liendo et al., 2020]).
(§2) A colorimetric assay based on the alamarBlue® reagent was performed to evaluate the activity of the compounds in two different N. fowleri strains (ATCC® 30808™ and ATCC® 30215™). The same protocol optimized by Rizo-Liendo et al. was followed in these assays ([Rizo-Liendo et al., 2019]). Briefly, N. fowleri trophozoites (2 × 10^5 cells/mL) were incubated with serial dilutions (in the same culture media) of the compounds in a 96 well microtiter plate. Next, the alamarBlue® reagent was added and the plates were incubated at 37 °C. After 48 h, the fluorescence was read in an EnSpire Multimode Plate Reader (Perkin Elmer, Madrid, Spain) using a wavelength of excitation of 570 nm and a wavelength of emission of 585 nm.
(§3) All experiments were carried out in triplicate and mean values were also calculated.

N. fowleri ATCC® 30808™ = experiment: as above; assay type: cell-based, Naegleria fowleri; details: for IC50: Naegleria fowleri, read-out: N. fowleri ATCC® 30808™ IC50; for N. fowleri ATCC® 30808™ SI (CC50/IC50): selectivity index
Procedure: as §1, §2, §3

[1] = alamarBlue cytotoxicity assay; assay type: cell-based; details: mouse, J774A.1, 24 h, mean ± SD, read-out: Murine macrophages CC50
Procedure: as §1
In order to evaluate the cytotoxicity of the compounds a murine macrophages cell line (ATCC® TIB-67) was used. A known concentration of cells (10^5 cells/mL) was incubated with serial dilutions of the molecules. After that, the alamarBlue® reagent was added and the plates were incubated for 24 h at 37 °C and in a 5% of CO2 atmosphere ([Arberas-Jiménez et al., 2020]). The same alamarBlue® based protocol described in the section above was assessed to obtain de cytotoxic concentration 50 (CC50).

[2] = test system: N. fowleri ATCC® 30808™ trophozoites; experiment: SYTOX Green plasmatic membrane permeability; assay type: cell-based, Naegleria fowleri; details: IC50 and IC90 of compound, 24 h
Procedure: (§4) The aim of these assays was to evaluate the presence of different metabolic events that are shown in programmed cell death like process (PCD-like) undergoing cells. […] After the treatment of the cells with these concentrations of the molecules, a 50% and a 10%, respectively, of the amoebae in the well remain as viable. Finally, the protocol for each kit was performed following manufacturers’ instructions. Moreover, the percentage of stained cells after the incubation of the treated and non-treated cells with each kit and the ratio of fluorescence between the aggregate and monomer forms of the JC-1 was evaluated. For this, the EVOS M5000 Cell Imaging System (Life Technologies, Madrid, Spain) was used and each experiment was performed in triplicate. In each experiment five different images were evaluated with a minimum number of cells of 80.
The SYTOX Green kit (Life Technologies, Madrid, Spain) was used for the evaluation of the cellular plasmatic membrane damage. This stain binds to the DNA of those cells who have suffered alterations in the permeability of the plasmatic membrane and emits a high green fluorescence. […] This assay was performed following manufacturer's instruction and modified by [Sifaoui et al. (2018)]. An EVOS M5000 Cell Imaging System (Life Technologies, Madrid, Spain) was used to obtain the images.

[3] = test system: Cysts of N. fowleri ATCC® 30808™; experiment: alamarBlue activity assay against cysts; assay type: cell-based; details: Naegleria fowleri, ATCC30808, read-out: IC50 against N. fowleri cysts
Procedure: Cysts of N. fowleri ATCC® 30808™ strain were used in these assays. Cysts were obtained as previously described and performing the protocol optimized by our group ([Arberas-Jiménez et al., 2022]). Mature cysts (2 × 10^5 cells/mL) were incubated with serial dilutions of yucatecone during 24 h at 37 °C. Subsequently, the media was removed and fresh bactocasitone was added with the aim to facilitate the excystation. Finally, the alamarBlue® reagent was added and the plates were incubated for 72 more hours at 37 °C prior to reading the fluorescence and determining the IC50 as described in section 2.4.

[4] = test system: N. fowleri ATCC® 30808™ trophozoites; experiment: CellROX Deep Red intracellular ROS; assay type: cell-based, Naegleria fowleri; details: IC50 and IC90 of compound, 24 h
Procedure: as §4
The CellROX Deep Red fluorescent assay (Invitrogen, Termo Fisher Scientifc, Madrid, Spain) was used to perform the ROS levels evaluation. After the cell incubation with the yucatecone the stain was added and incubated for half an hour in the dark. Finally, images were obtained with an EVOS M5000 Cell Imaging System (Life Technologies, Madrid, Spain). The presence of ROS is detected by intense red fluorescence.

[5] = test system: N. fowleri ATCC® 30808™ trophozoites; experiment: Hoechst 33342/propidium iodide double stain for chromatin condensation; assay type: cell-based, Naegleria fowleri; details: IC50 and IC90 of compound, 24 h
Procedure: as §4
A double stain detection kit Hoechst 33342/propidium iodide (PI) (Life Technologies, Madrid, Spain) and an EVOS M5000 Cell Imaging System (Life Technologies, Madrid, Spain) were used in this experiment. The assay was performed following manufacturer's instruction.
This kit enables to distinguish between three different group of cells: A light blue fluorescence corresponds to live cells whereas in the treated cells an intense blue fluorescence is shown. Finally, red fluorescence appears in dead cells as the IP binds to their DNA.

N. fowleri trophozoites = experiment: Celltiter-Glo ATP level measurement; assay type: cell-based, Naegleria fowleri
Procedure: as §4
The ATP level measurement was performed with the Celltiter-Glo® Luminescent Cell Viability Assay (Promega Biotech Ibérica, Madrid, Spain). […]

[6] = test system: N. fowleri ATCC® 30808™ trophozoites; experiment: JC-1 mitochondrial membrane potential; assay type: cell-based, Naegleria fowleri; details: IC50 and IC90 of compound, 24 h
Procedure: as §4
The mitochondrial membrane potential decrease was determined using the JC-1 Mitochondrial Membrane Potential Assay Kit (Cayman Chemicals, Vitro SA, Madrid, Spain). The JC-1 dye presents potential-dependent accumulation in mitochondria. At high membrane potentials (healthy cells) JC-1 dye accumulates as “J-aggregates” in the mitochondria and emits red fluorescence whereas at low membrane potentials (cells undergoing PCD-like responses) the dye is presented in monomeric form in the cytoplasm, emitting green fluorescence. […]

[7] = ATCC30215, trophozoite stage, 48 h, mean ± SD, triplicate
[8] = ATCC30808, trophozoite stage, 48 h, mean ± SD, triplicate, N/A = no activity observed

Compound | IC50 (N. fowleri ATCC® 30215™; [7]) [µM] | N. fowleri ATCC® 30215™ SI (CC50/IC50) (N. fowleri ATCC® 30215™) | IC50 (N. fowleri ATCC® 30808™; [8]) [µM] | N. fowleri ATCC® 30808™ SI (CC50/IC50) (N. fowleri ATCC® 30808™) | CC50 at 24 h [1] [µM] | plasma membrane permeability (SYTOX Green) [2] | IC50 [3] [µM] | intracellular ROS level (CellROX Deep Red) [4] | chromatin condensation (Hoechst 33342) [5] | propidium iodide staining [5] | IC50 (N. fowleri ATCC® 30215™; ATCC30215, 48 h) [µM] | IC50 (N. fowleri ATCC® 30808™; ATCC30808, 48 h) [µM] | N. fowleri ATCC® 30808™ SI (CC50/IC50) (N. fowleri ATCC® 30808™; listed as Yucatecone) | decrease of ATP production (N. fowleri trophozoites; treated with the IC50, compared to negative control) [%] | decrease of ATP production (N. fowleri trophozoites; treated with the IC90, compared to negative control) [%] | mitochondrial membrane potential (JC-1) [6] | CC50 at 24 h ([1]; J774A.1 murine macrophage cell line (ATCC TIB-67)) [µM]
C=C(CCC(=O)C1(C)CCC(C(C)(C)O)O1)C1CCC2OC(C3(C)CCC(Br)C(C)(C)O3)CCC2(C)O1 (stereo not shown) [18-KetoDT (6), 18-ketodehydrothyrsiferol] | 12.7 ± 2.64 | 3.17 | 15.3 ± 2.82 | 2.61 | 40 ± 1.06 |  |  |  |  |  |  |  |  |  |  |  | 
CC(CCC(=O)C1(C)CCC(C(C)(C)O)O1)C1CCC2OC(C3(C)CCC(Br)C(C)(C)O3)CCC2(C)O1 (stereo not shown) [Yucatecone (4), yucatecone] |  | >5.23 |  | >2.98 | > 85 | caused plasma membrane permeabilty damage | 9.43 ± 1.48 | increased the intracellular ROS level production | induces chromatin condensation | no fluorescence is shown | 16.2 ± 1.23 | 28.5 ± 5.04 | > 2.98 | 54.80 | 90.44 | induces the depolarization of the mitochondrial membrane potential | 
C[C@@H]1[C@H](O)[C@@H](C)/C=C/C=C/C=C/C=C/C=C/C=C/C=C/[C@H](O[C@@H]2O[C@H](C)[C@@H](O)[C@H](N)[C@@H]2O)C[C@@H]2O[C@](O)(C[C@@H](O)C[C@@H](O)[C@H](O)CC[C@@H](O)C[C@@H](O)CC(=O)O[C@H]1C)C[C@H](O)[C@H]2C(=O)O [Amphotericin B, reference compound] | 0.16 ± 0.02 | >1204.82 | 0.12 ± 0.03 | >1652.89 |  |  |  |  |  |  |  |  |  |  |  |  | > 200
CCCCCCCCCCCCCCCCOP(=O)([O-])OCC[N+](C)(C)C [Miltefosine, reference compound] | 81.6 ± 7.23 | 1.57 | 38.7 ± 4.23 | 3.30 |  |  |  |  |  |  |  |  |  |  |  |  | 
